Data as given in patent publication US20040228868A1, “Apo-2L receptor agonist and CPT-11 synergism” (Genentech, Inc., priority 1999, published 2004).

Tested on: COLO205 colon carcinoma cells
Test: COLO205 colon carcinoma xenograft tumor growth in athymic nude mice (Example 1)
Assay type: in vivo, human
Conditions: Apo-2L 30 mg/kg/day days 0-4 and 7-11, CPT-11 80 mg/kg/day days 0, 4, 8; for animals in which tumor growth resumed several days after the treatment period: of 9 mice per group
Description: The colon carcinoma cell line COLO205 (available from NCI) were grown and maintained according to the supplier's methods. Briefly, COLO205 cells were cultured in high glucose DMEM/F12 (50:50) media containing 10% fetal bovine serum and 2.0 mM-L-Glutamine. […] Cell-paste containing recombinant human soluble Apo-2L was extracted with a buffer containing 0.1M Tris/0.2M NaCl/50 mM EDTA, pH 8.0. The extract was precipitated by 40% ammonium sulfate. […] Purity was determined by sodium-dodecyl sulfate (SDS)-polyacrylamide gel electrophoresis and silver-nitrate or coomassie-blue staining, by amino acid sequence analysis, and by size-exclusion on high performance liquid chromatography (HPLC). CPT-11 (Camptosar®) was obtained from Pharmacia & Upjohn.
Athymic nude mice (Jackson Laboratories) were injected subcutaneously with 5 million COLO205 colon carcinoma cells and the tumors allowed to grow to about 120 mm^3. Tumor-bearing mice were randomized into 4 groups at 9 mice per group and treated with either vehicle (20 mM Tris, 8% Trehalose, 0.01 Tween-20, pH 7.5), Apo-2L (30 mg/kg/day on days 0-4 and 7-11), or CPT-11 (80 mg/kg/day on days 0, 4, and 8), or a combination of Apo-2L (30 mg/kg/day on days 0-4 and 7-11) plus CPT-11 (80 mg/kg/day on days 0, 4, and 8). Tumor volumes were determined at the indicated days over 34 days.

Compound	animals in which tumor growth resumed several days after the treatment period [animals]	effect on tumor growth (tumor volume, FIG. 1) (s.c. COLO205 tumors about 120 mm^3, 9 mice per group, followed 34 days)
Apo-2L: recombinant human soluble Apo-2L, extracellular portion amino acids 114-281, prepared in E. coli	9	suppressed tumor growth during the treatment period
CCc1c2c(nc3ccc(OC(=O)N4CCC(N5CCCCC5)CC4)cc13)-c1cc3c(c(=O)n1C2)COC(=O)[C@]3(O)CC.Cl.O.O.O [CPT-11, (4S)-4,11-diethyl-4-hydroxy-9-[(4-piperidino-piperidino)carbonyloxyl]-1H-pyrano[3′,4′:6,7]indolizino[1,2-b]quinoline-3,14(4H,12H)dione hydrochloride trihydrate]	9	–
